Patent US20030119913A1, “Method for increasing serotonin levels in a person by administration of a composition incorporating (-)-hydroxycitric acid, and related compositions thereof” (priority 2001, published 2003)

Tests used:
rat brain cortex slices = assay: Radiolabeled serotonin release from isolated, superfused rat brain cortex slices in vitro; assay type: cell-based
Description: Methods previously known for studies of radiolabeled serotonin release were employed. Isolated rat brain cortex slices were incubated in oxygenated Krebs buffer solution containing 800 nM radiolabeled serotonin, the monoamine oxidase inhibitor pargyline (10 μM), and the cyclooxygenase inhibitor flurbiprofen (3 μM) at 37° C. […] Radiolabeled serotonin was purchased from NEN Life Sciences, Boston, Mass. The Krebs solution used had the following composition (millimolar): potassium chloride, 4.8; sodium chloride 118; calcium chloride, 1.3; potassium dihydrogen phosphate, 1.2; sodium bicarbonate, 25; magnesium sulfate, 2.0; and dextrose, 10 (pH 7.4).
After incubation, tissues were rinsed, mounted between nylon mesh-cloth and placed in thermostatically-controlled superfusion chambers. Tissues were superfused at a rate of 0.5 ml/min with oxygenated Krebs solution containing clomipramine (10 μM), a serotonin reuptake inhibitor. Fractions of the superfusate were collected at 6-minute intervals, and 3-ml aliquots of each fraction was combined with 12 ml of aqueous scintillation cocktail marketed under the name Ecolume, by ICN Radiochemicals of California) and analyzed for radioactivity by liquid scintillation spectrometry.
After an initial 2 hours of superfusion to establish a stable baseline of spontaneous tritium efflux, release of radiolabeled serotonin was elicited by consecutive potassium-depolarizing (K+, 50 mM) stimuli applied at 144 minutes (S1) and at 198 minutes (S2) after the onset of superfusion. In some experiments, tissues were exposed to different concentrations of HCA for 12 minutes before the second K+ stimuli at S2. When HCA was tested on its own, the K+ (50 mM; S1) peak was used as the standard (or control) response. In this case, effects induced by HCA on radiolabeled serotonin release were then compared with the standard K+ response. Both K+ and HCA-induced radiolabeled serotonin release were estimated by subtraction of the extrapolated basal tritium efflux from total tritium release in the 20-minute period after the onset of stimulation. Basal (unstimulated) tritium efflux was assumed to decline linearly between pre-stimulation and post-stimulation fractions. Stimulation-evoked radiolabeled serotonin release during S1 and S2 was determined graphically, and the ratio of the two peaks (S1/S2) was calculated and compared with untreated control preparations.
Results obtained were expressed as absolute S1/S2 ratios. Data from different experiments (control and test) were pooled and then subjected to statistical analysis. Except where indicated otherwise, values given are arithmetic means ±SEM. Significance of difference between control and test values was evaluated using analysis of variance (ANOVA) followed by Dunnett's test. […]

[1] = test system: moderately obese human subjects; assay: Double-blind, placebo-controlled human clinical trial (serum serotonin, body weight, food intake); assay type: in vivo
Description: The effects of administering compositions within the scope of the present invention were tested. A double-blind, placebo-controlled human clinical trial was conducted using a composition incorporating: the HCA extract described above, or the HCA extract in combination with an oxygen-coordinated niacin-bound chromium (ChromeMate®, supplied by InterHealth), and a standardized Gymnema sylvestre extract (also supplied by InterHealth). Approximately 80 moderately obese human subjects were enrolled in the study. All subjects were placed on a daily diet of 2,000 kcal, weighing 2,250 grams. All food was prepared and delivered to the subjects, and all food intake was strictly supervised by trained dieticians. All subjects also underwent a 30 minute walking exercise program, five times a week, which was supervised by a trained exercise specialist. The subjects were randomly divided into three groups. The first group was given a placebo. The second group was given a daily dose of 4,667 mg of garcinia cambogia extract (providing 2,800 mg HCA per day). The third group was given a daily dose of 4,667 mg of a combination of garcinia cambogia (2,800 mg HCA), 4 mg of niacin-bound chromium (providing 400 mcg of elemental chromium), and 400 mg of Gymnema sylvestre extract (providing 100 mg […]). The subjects received their respective compositions in three equally-divided doses 30 to 60 minutes before breakfast, lunch and dinner for eight weeks. These dosage levels of HCA were determined by extrapolation of successful earlier animal trials, as well as review of optimal micromolar concentrations of HCA in ex vivo brain tissue resulting in maximum serotonin release. The persons were assessed for changes in serum serotonin levels, body weight, and food intake. As discussed above, increases in serum serotonin levels relate to reduced appetite. Food intake was measured by monitoring the amount of food left unconsumed after each meal by the subjects. The amount of food left unconsumed while taking either the placebo or either of the HCA compositions was compared to the amount of food left unconsumed before the subjects began taking the compositions (i.e., the baseline). Changes in each of these factors were measured in the persons and averaged to produce the figures in Table 1.

[2] = eight weeks, 2,800 mg HCA per day orally in three doses

## O=C(O)CC(O)(C(=O)O)C(O)C(=O)O (single isomer, unassigned; (-)) [HCA, (−)-hydroxycitric acid]
Rat brain cortex slices; HCA 10 μM-1 mM applied 12 minutes before second K+ (50 mM) stimulus
  Effect on second K+ response (K+-depolarization evoked radiolabeled serotonin release, S2): no significant effect
Rat brain cortex slices; HCA 10 μM-1 mM, rat brain cortex slices
  Effect on basal efflux of radiolabeled serotonin: concentration-related increase
Rat brain cortex slices; HCA 300 μM (maximal concentration)
  Overflow of radiolabeled serotonin compared with standard K+ (50 mM) response: equivalent to the release induced by the standard concentration of K+ (50 mM)
Rat brain cortex slices; tested range 10 μM-1 mM
  Concentration giving maximum basal efflux of radiolabeled serotonin: 300 µM
[1]; [2]
  Body weight, % decrease: 5.0%
  Serum serotonin level, % increase: 48.5%
  Serum serotonin level, mg/dl increase: 119.1 mg/dL
[1]; eight weeks, 2,800 mg HCA per day orally in three doses, 2,000 kcal diet and exercise
  Body weight, pounds lost: 10.0 pounds
[1]; eight weeks, compared with before taking the compositions
  Food left unconsumed, % increase from baseline: 206%
[1]; eight weeks, daily diet weighing 2,250 grams
  Food left unconsumed, grams: 249 grams
